PubChem BioAssay AID1963852 (Molecular Pharmacology Branch, DTP, NCI, 2024)
pIC50: −log10 of the molar value.

Test system: 282377-053-R-J1-PDC complex spheroid viability
Experiment: Anticancer human tumor 282377-053-R-J1-PDC patient-derived colon adenocarcinoma cell line growth inhibition [POLQ]
Settings: for pIC50: curve of first compound; for viability, T/C: stronger effect = lower value
Procedure, shortened: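 PDC + HUVEC + MSC complex spheroids; POLQ inhibitors ± partner drugs; top conc. at/near clinical Cmax, else 10 microM (SN-38 1 microM), half-log dilutions; 37 degrees C, 5% CO2.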

[1] = second compound 0.0316 µM, first compound 0.00316 µM
[2] = second compound 0.0316 µM, first compound 0.01 µM
[3] = second compound 0.0316 µM, first compound 0.0316 µM
[4] = second compound 0.0316 µM, first compound 0.1 µM
[5] = second compound 0.0316 µM, first compound 0.316 µM
[6] = second compound 0.0316 µM, first compound 1 µM
[7] = second compound 0.1 µM, first compound 0.00316 µM
[8] = second compound 0.1 µM, first compound 0.01 µM
[9] = second compound 0.1 µM, first compound 0.0316 µM
[10] = second compound 0.1 µM, first compound 0.1 µM
[11] = second compound 0.1 µM, first compound 0.316 µM
[12] = second compound 0.1 µM, first compound 1 µM
[13] = second compound 0.316 µM, first compound 0.00316 µM
[14] = second compound 0.316 µM, first compound 0.01 µM
[15] = second compound 0.316 µM, first compound 0.0316 µM
[16] = second compound 0.316 µM, first compound 0.1 µM
[17] = second compound 0.316 µM, first compound 0.316 µM
[18] = second compound 0.316 µM, first compound 1 µM
[19] = second compound 1 µM, first compound 0.00316 µM
[20] = second compound 1 µM, first compound 0.01 µM
[21] = second compound 1 µM, first compound 0.0316 µM
[22] = second compound 1 µM, first compound 0.1 µM
[23] = second compound 1 µM, first compound 0.316 µM
[24] = second compound 1 µM, first compound 1 µM
[25] = second compound 3.16 µM, first compound 0.00316 µM
[26] = second compound 3.16 µM, first compound 0.01 µM
[27] = second compound 3.16 µM, first compound 0.0316 µM
[28] = second compound 3.16 µM, first compound 0.1 µM
[29] = second compound 3.16 µM, first compound 0.316 µM
[30] = second compound 3.16 µM, first compound 1 µM
[31] = second compound 10 µM, first compound 0.00316 µM
[32] = second compound 10 µM, first compound 0.01 µM
[33] = second compound 10 µM, first compound 0.0316 µM
[34] = second compound 10 µM, first compound 0.1 µM
[35] = second compound 10 µM, first compound 0.316 µM
[36] = second compound 10 µM, first compound 1 µM
[37] = second compound 0.0316 µM, first compound 3.16 µM
[38] = second compound 0.0316 µM, first compound 10 µM
[39] = second compound 0.1 µM, first compound 3.16 µM
[40] = second compound 0.1 µM, first compound 10 µM
[41] = second compound 0.316 µM, first compound 3.16 µM
[42] = second compound 0.316 µM, first compound 10 µM
[43] = second compound 1 µM, first compound 3.16 µM
[44] = second compound 1 µM, first compound 10 µM
[45] = second compound 3.16 µM, first compound 3.16 µM
[46] = second compound 3.16 µM, first compound 10 µM
[47] = second compound 10 µM, first compound 3.16 µM
[48] = second compound 10 µM, first compound 10 µM
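Note: spheroids exposed to compounds for seven days.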
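Throughout, for viability, T/C: 100% = DMSO vehicle control viability.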

Compound: C=CCn1c(=O)c2cnc(Nc3ccc(N4CCN(C)CC4)cc3)nc2n1-c1cccc(C(C)(C)O)n1 + Nc1ccc(C#CCN(C(=O)Cc2ncc(C(F)(F)F)cc2C(F)(F)F)c2ccc(F)cc2)nn1
- pIC50 (second compound 0.0316 µM): < 6.00
- pIC50 (second compound 0.1 µM): < 6.00
- pIC50 (second compound 0.316 µM): < 6.00
- pIC50 (second compound 1 µM): < 6.00
- pIC50 (second compound 3.16 µM): < 6.00
- pIC50 (second compound 10 µM): < 6.00
- viability, T/C [1]: 122%
- viability, T/C [2]: 102%
- viability, T/C [3]: 99.1%
- viability, T/C [4]: 98.3%
- viability, T/C [5]: 81.8%
- viability, T/C [6]: 69%
- viability, T/C [7]: 96.3%
- viability, T/C [8]: 110%
- viability, T/C [9]: 89.4%
- viability, T/C [10]: 107%
- viability, T/C [11]: 90.7%
- viability, T/C [12]: 70.1%
- viability, T/C [13]: 102%
- viability, T/C [14]: 96.9%
- viability, T/C [15]: 99.2%
- viability, T/C [16]: 86.1%
- viability, T/C [17]: 91.8%
- viability, T/C [18]: 61.4%
- viability, T/C [19]: 106%
- viability, T/C [20]: 91.8%
- viability, T/C [21]: 79.9%
- viability, T/C [22]: 86.2%
- viability, T/C [23]: 93.8%
- viability, T/C [24]: 67.6%
- viability, T/C [25]: 117%
- viability, T/C [26]: 110%
- viability, T/C [27]: 93.8%
- viability, T/C [28]: 102%
- viability, T/C [29]: 85.3%
- viability, T/C [30]: 84.6%
- viability, T/C [31]: 117%
- viability, T/C [32]: 100%
- viability, T/C [33]: 96.7%
- viability, T/C [34]: 94.7%
- viability, T/C [35]: 100%
- viability, T/C [36]: 78.2%

Compound: CNCc1ccc(-c2[nH]c3cc(F)cc4c3c2CCNC4=O)cc1 + Nc1ccc(C#CCN(C(=O)Cc2ncc(C(F)(F)F)cc2C(F)(F)F)c2ccc(F)cc2)nn1
- pIC50 (second compound 0.0316 µM): < 5.00
- pIC50 (second compound 0.1 µM): < 5.00
- pIC50 (second compound 0.316 µM): < 5.00
- pIC50 (second compound 1 µM): < 5.00
- pIC50 (second compound 3.16 µM): < 5.00
- pIC50 (second compound 10 µM): < 5.00
- viability, T/C [3]: 105%
- viability, T/C [4]: 88.6%
- viability, T/C [5]: 90%
- viability, T/C [6]: 104%
- viability, T/C [37]: 108%
- viability, T/C [38]: 112%
- viability, T/C [9]: 119%
- viability, T/C [10]: 117%
- viability, T/C [11]: 104%
- viability, T/C [12]: 94.6%
- viability, T/C [39]: 97.4%
- viability, T/C [40]: 112%
- viability, T/C [15]: 95.7%
- viability, T/C [16]: 86.2%
- viability, T/C [17]: 89.8%
- viability, T/C [18]: 108%
- viability, T/C [41]: 92%
- viability, T/C [42]: 108%
- viability, T/C [21]: 95%
- viability, T/C [22]: 103%
- viability, T/C [23]: 100%
- viability, T/C [24]: 90.8%
- viability, T/C [43]: 115%
- viability, T/C [44]: 101%
- viability, T/C [27]: 109%
- viability, T/C [28]: 98.3%
- viability, T/C [29]: 127%
- viability, T/C [30]: 92.4%
- viability, T/C [45]: 118%
- viability, T/C [46]: 139%
- viability, T/C [33]: 113%
- viability, T/C [34]: 105%
- viability, T/C [35]: 126%
- viability, T/C [36]: 121%
- viability, T/C [47]: 113%
- viability, T/C [48]: 145%

Compound: COc1cccc(OCCCN)c1-c1cc(Nc2cnc(C#N)cn2)n[nH]1 + Nc1ccc(C#CCN(C(=O)Cc2ncc(C(F)(F)F)cc2C(F)(F)F)c2ccc(F)cc2)nn1
- pIC50 (second compound 0.0316 µM): 6.43
- pIC50 (second compound 0.1 µM): 6.55
- pIC50 (second compound 0.316 µM): 6.53
- pIC50 (second compound 1 µM): 6.24
- pIC50 (second compound 3.16 µM): 6.62
- pIC50 (second compound 10 µM): 6.67
- viability, T/C [1]: 128%
- viability, T/C [2]: 93.5%
- viability, T/C [3]: 85%
- viability, T/C [4]: 66.8%
- viability, T/C [5]: 55.3%
- viability, T/C [6]: 37%
- viability, T/C [7]: 89.7%
- viability, T/C [8]: 97.3%
- viability, T/C [9]: 72.9%
- viability, T/C [10]: 62.4%
- viability, T/C [11]: 51.8%
- viability, T/C [12]: 39%
- viability, T/C [13]: 94.9%
- viability, T/C [14]: 88.3%
- viability, T/C [15]: 73.4%
- viability, T/C [16]: 58.1%
- viability, T/C [17]: 53.2%
- viability, T/C [18]: 38%
- viability, T/C [19]: 110%
- viability, T/C [20]: 90.3%
- viability, T/C [21]: 76.4%
- viability, T/C [22]: 58.4%
- viability, T/C [23]: 53.7%
- viability, T/C [24]: 47.5%
- viability, T/C [25]: 97.6%
- viability, T/C [26]: 93.5%
- viability, T/C [27]: 81.3%
- viability, T/C [28]: 74.9%
- viability, T/C [29]: 39.7%
- viability, T/C [30]: 35.6%
- viability, T/C [31]: 103%
- viability, T/C [32]: 96.7%
- viability, T/C [33]: 99.9%
- viability, T/C [34]: 66.7%
- viability, T/C [35]: 43.3%
- viability, T/C [36]: 36.3%

Compound: O=C(c1cc(Cc2n[nH]c(=O)c3ccccc23)ccc1F)N1CCN(C(=O)C2CC2)CC1 + Nc1ccc(C#CCN(C(=O)Cc2ncc(C(F)(F)F)cc2C(F)(F)F)c2ccc(F)cc2)nn1
- pIC50 (second compound 0.0316 µM): < 5.00
- pIC50 (second compound 0.1 µM): < 5.00
- pIC50 (second compound 0.316 µM): < 5.00
- pIC50 (second compound 1 µM): < 5.00
- pIC50 (second compound 3.16 µM): < 5.00
- pIC50 (second compound 10 µM): < 5.00
- viability, T/C [3]: 114%
- viability, T/C [4]: 104%
- viability, T/C [5]: 101%
- viability, T/C [6]: 105%
- viability, T/C [37]: 121%
- viability, T/C [38]: 105%
- viability, T/C [9]: 112%
- viability, T/C [10]: 123%
- viability, T/C [11]: 98.6%
- viability, T/C [12]: 102%
- viability, T/C [39]: 117%
- viability, T/C [40]: 118%
- viability, T/C [15]: 113%
- viability, T/C [16]: 97.1%
- viability, T/C [17]: 104%
- viability, T/C [18]: 95.2%
- viability, T/C [41]: 109%
- viability, T/C [42]: 94.8%
- viability, T/C [21]: 119%
- viability, T/C [22]: 103%
- viability, T/C [23]: 105%
- viability, T/C [24]: 110%
- viability, T/C [43]: 112%
- viability, T/C [44]: 109%
- viability, T/C [27]: 111%
- viability, T/C [28]: 109%
- viability, T/C [29]: 111%
- viability, T/C [30]: 106%
- viability, T/C [45]: 118%
- viability, T/C [46]: 115%
- viability, T/C [33]: 122%
- viability, T/C [34]: 106%
- viability, T/C [35]: 130%
- viability, T/C [36]: 121%
- viability, T/C [47]: 129%
- viability, T/C [48]: 127%
